Laboratory results as given in article PMC8122671, “New Succinimides with Potent Anticancer Activity: Synthesis, Activation of Stress Signaling Pathways and Characterization of Apoptosis in Leukemia and Cervical Cancer Cells” (International Journal of Molecular Sciences, 2021).
Structures can show the parent of a compound that is named as a salt. Where two headings read alike, the source gives them in different places.

How the values were obtained:
[1] = system: K562 (myelogenous leukemia cell line); test: MTT cytotoxicity assay, K562; format: cell-based, human; conditions: Homo sapiens, K562, 48 h, 48 h incubation; average (SD) of three experiments; read-out: IC50 K562
Description: (§1) The cytotoxicity of new derivatives of dicarboximides was tested in HeLa (cervix carcinoma cell line), K562 (myelogenous leukemia cell line), MOLT-4 (Human T-Lymphoid Cell Line), and HUVEC (normal endothelial) cells. First, the viability of cells was determined after 48 h incubation with the screened compounds used at the concentration of 100 μM (data not shown). […] Cells exposed to 1% DMSO (as vehicle) served as the control with 100% survival.
(§2) Human umbilical vein endothelial cells (Life Technologies, Carlsbad, CA, USA) were cultured (according to the manufacturer’s instructions) in Medium 200 containing low serum growth supplement; 1 × 10^4 cells were seeded on each well on a 96-well plate (Nunc, Roskilde, Denmark). The HeLa (human cervix carcinoma), K562, and MOLT-4 (leukemia) cells were cultured in RPMI 1640 medium supplemented with antibiotics and 10% fetal calf serum in a 5% CO2–95% air atmosphere; 7 × 10^3 cells were seeded on each well on a 96-well plate (Nunc). Twenty-four hours later, cells were exposed to the test compounds for additional 48 hours. Stock solutions of test compounds were freshly prepared in DMSO. The final concentrations of the compounds tested in the cell cultures were 2 × 10^−1, 1 × 10^−1, 5 × 10^−2, 1 × 10^−2, 1 × 10^−3, and 1 × 10^−4 mM. The concentration of DMSO in the cell culture medium was 1%. The values of IC50 (the concentration of test compound required to reduce the cell survival fraction to 50% of the control) were calculated from dose–response curves and used as a measure of cellular sensitivity to a given treatment. The cytotoxicity of all compounds was determined by the MTT [3-(4,5-dimethylthiazol-2-yl)-2,5-diphenyltetrazolium bromide; Sigma, St. Louis, MO, USA] assay. Briefly, after 24 or 48 h of incubation with drugs, the cells were treated with the MTT reagent, and incubation was continued for 2 h. MTT-formazan crystals were dissolved in 20% SDS and 50% DMF at pH 4.7, and absorbance was read at 570 and 650 nm on a microplate reader FLUOstar Omega (BMG Labtech, Offenburg, Germany). As a control (100% viability), we used cells grown in the presence of the vehicle (1% DMSO) only.

[2] = system: HUVEC (normal endothelial) cells; test: MTT cytotoxicity assay, HUVEC; format: cell-based; conditions: Homo sapiens, read-out: IC50 HUVEC
Description: as §1, §2

[3] = system: HeLa (human cervix carcinoma) cells; test: MTT cytotoxicity assay, HeLa; format: cell-based; conditions: 48 h incubation, average (SD) of three experiments, read-out: IC50 HeLa
Description: as §1, §2

[4] = system: MOLT-4 (Human T-Lymphoid Cell Line); test: MTT cytotoxicity assay, MOLT-4; format: cell-based; conditions: read-out: IC50 MOLT-4
Description: as §1, §2

[5] = Lipophilicity (logkw) by reversed-phase chromatography (RP-HPLC); format: physicochemical; conditions: for logkw (Experimental): extrapolated to pure water; for logkw (Table S2): intercept of logk vs methanol fraction, n = 4
Source text: The main goal of the synthetic part was the synthesis of new derivatives of dicarboximides with decreased lipophilicity in comparison to the lead compounds, i.e., Ia–Ie and II. To reduce the lipophilicity of the new dicarboximides, a hydroxyalkyl chain connected with an aliphatic amine was introduced to the imides (Scheme 1). At the same time, the imide scaffold in derivatives from group 2 and 3 was the same as in lead compounds Ia–Ie and II, respectively (Figure 1). The structure of the imide was changed in derivatives 1b–1g. The lipophilicity of new derivatives was calculated using the Osiris Property Explorer program. For some compounds, lipophilicity was determined experimentally by a reversed-phase chromatography (detailed description is given in Materials and Methods and in the Supplementary Data, Table S2). Table 1 summarizes the calculated (clogP) and experimental (logkw) parameters of the lipophilicity of new derivatives.
The reversed-phase high-performance liquid chromatography (RP-HPLC) analysis was performed on a Merck–Hitachi LaChrom Elite System (Merck, Darmstadt, Germany) with diode array detector L-2455, thermostat L-2300, pump L-2130, and autosampler L-2200 and with the Waters XTerra MS RP-18 (3.5 μm, 150 × 4.6 mm) chromatographic column (Waters, Milford, MA, USA) as the stationary phase. The mobile phase consisted of methanol, water, and 0.1% (v/v) formic acid and was degassed by the use of the built-in membrane degasser. The methanol gradient grade for HPLC was purchased from Merck (Merck, Darmstadt, Germany) and formic acid from Polish Reagents (Polish Reagents, Gliwice, Poland); double-distilled water was used. Then, 5 μL of methanolic solutions (0.1%; m/v) of selected samples were applied to the chromatographic column by the use of an autosampler Hitachi L-2200 (LaChrom Elite, Hitachi-Merck, Darmstadt, Germany). The analysis was performed with the flow rate of 0.7 mL min^−1 in isocratic mode using various concentrations of organic modifier (methanol) in binary polar mobile phases; percentages of methanol in water were 45–70% (%, v/v) and changed by 5% per step. Chromatograms were detected at 254 nm and the temperature of the column was 25 °C. All experiments were repeated in triplicate, and the final results were taken to be the arithmetic means. Dead time was measured by the use of uracil (Calbiochem. Merck, Darmstadt, Germany). Statistical and regression analyses were performed using Statistica (ver. 13.3 for Windows). The chromatographic lipophilicity parameters ( logkW ) for selected samples were obtained by the extrapolation of the retention parameter logk to pure water, according to Equation (1):(1) logk=logkw−S·ϕ; where logkW is the value of the retention factor of a substance in pure water, S is the slope of the regression curve, and ϕ is the concentration of the organic modifier. The values of logk were calculated based on the raw HPLC data using the formula (2):(2) logk=logtR−t0/t0; where tR is the retention time and t0 is the dead retention time (determined for uracil).
The chromatographic lipophilicity parameters (logkௐ ) for selected samples were ob‐ tained by the extrapolation of the retention parame te r logk to pure water, according to […]
where logkௐ is the value of the retention factor of a substance in pure water, S is the slope of the regression curve, and φ is the concentration of the organic modifier. The values of logk were ca lcula ted based on the raw HPLC data using the formula: […]
logk ൌ log ሺ௧ೃ ି ௧బ௧బ ሻ (2) where tோ is the retention time and t଴ is the dead retention time (determined for ura‐ cil). The goodness of fit of the equation (1) to the experimental data was classified accord‐ ing to Jaffe (Jaffe, H. H. A Reexamination of the Hammet Equation. Chem. Rev. 1953, 53, In our RP‐HPLC experiments, the goodness of fit of the equation to the experi‐ mental data are excellent in most ca ses (r > 0.99). The F statistic val ues are, in all cases, […]

[6] = 48 h incubation, average (SD) of three experiments
[7] = MOLT-4, 48 h incubation, average (SD) of three experiments

Row | SMILES | melting point [°C] | IC50 [1] [µM] | IC50 [2, 6] [µM] | IC50 [3] [µM] | IC50 [4, 7] [µM] | other results
1 | CCCCN(CCCC)CC(O)CN1C(=O)C2C(C1=O)C1(C)C(=O)C2(C)C(c2ccccc2)=C1c1ccccc1 (stereo not shown) (as salt: HCl) [1e, 4-[3-(dibutylamino)-2-hydroxypropyl]-1,7-dimethyl-8,9-diphenyl-4-azatricyclo [5.2.1.0^2,6]dec-8-ene-3,5,10-trione] | 192 to 196 |  |  |  |  | 
2 | CCCCN(CCCC)CC(O)CN1C(=O)C2C(C1=O)C1(c3ccccc3)CC2(c2ccccc2)C(c2ccccc2)=C1c1ccccc1 (stereo not shown) (as salt: HCl) [3e, 4-[3-(dibutylamino)-2-hydroxypropyl]-1,7,8,9-tetraphenyl-4-azatricyclo[5.2.1.0^2,6]dec-8-ene-3,5-dione] | 237 to 238 |  |  |  |  | 
3 | CC12C(=O)C(C)(C(c3ccccc3)=C1c1ccccc1)C1C(=O)N(CCN3CCOCC3)C(=O)C12 (stereo not shown) (as salt: HCl) [1j, 4-[2-(morpholin-4-yl)ethy]-1,7-dimethyl-8,9-diphenyl-4-azatricyclo[5.2.1.0^2,6]dec-8-ene-3,5,10-trione] | 227 to 228 |  |  |  |  | 
4 | O=C1C2C(C(=O)N1CCO)C1(c3ccccc3)CC2(c2ccccc2)C(c2ccccc2)=C1c1ccccc1 (stereo not shown) [compound 5, 4-(2-hydroxyethyl)-1,7,8,9-tetraphenyl-4-azatricyclo[5.2.1.02,6]dec-8-ene-3,5-dione] | 197 to 198 | 6.2 | 0.7 | 8 | 2.1 | 
5 | CC12C(=O)C(C)(C(c3ccccc3)=C1c1ccccc1)C1C(=O)N(CCN3CCCCC3)C(=O)C12 (stereo not shown) (as salt: HCl) [1i, 4-[2-(piperidin-1-yl)ethy]-1,7-dimethyl-8,9-diphenyl-4-azatricyclo[5.2.1.0^2,6]dec-8-ene-3,5,10-trione] | 214 to 216 |  |  |  |  | 
6 | CC12C(=O)C(C)(C(c3ccccc3)=C1c1ccccc1)C1C(=O)N(CC(O)CN3CCCCC3)C(=O)C12 (stereo not shown) (as salt: HCl) [1f, 4-[2-hydroxy-3-(piperidin-1-yl)propyl]-1,7-dimethyl-8,9-diphenyl-4-azatricyclo[5.2.1.0^2,6]dec-8-ene-3,5,10-trione] | 170 to 171 |  |  |  |  | 
7 | CC12C(=O)C(C)(C(c3ccccc3)=C1c1ccccc1)C1C(=O)N(CCCl)C(=O)C12 (stereo not shown) [1h, 4-(2-chloroethyl)-1,7-dimethyl-8,9-diphenyl-4-azatricyclo[5.2.1.0^2,6]dec-8-ene-3,5,10-trione] | 190 to 191 |  |  |  |  | IC50 ([2]; 48 h): 64 µM; IC50 ([4]; MOLT-4, 48 h): 20 µM
8 | O=C1C2C(C(=O)N1CC(O)CN1CCOCC1)C1(c3ccccc3)CC2(c2ccccc2)C(c2ccccc2)=C1c1ccccc1 (stereo not shown) [3g, 4-[-2-hydroxy-3-(morpholin-4-yl)propyl]-1,7,8,9-tetraphenyl-4-azatricyclo[5.2.1.0^2,6]dec-8-ene-3,5-dione] |  | 31 | 17 | 120 | 5.2 | logkw (Experimental) [5]: 6.28; logkw (Table S2) [5]: 6.2759
9 | O=C1C2C(C(=O)N1CC(O)CN1CCCCC1)C1(c3ccccc3)CC2(c2ccccc2)C(c2ccccc2)=C1c1ccccc1 (stereo not shown) (as salt: HCl) [3f, 4-[2-hydroxy-3-(piperidin-1-yl)propyl]-1,7,8,9-tetraphenyl-4-azatricyclo[5.2.1.0^2,6]dec-8-ene-3,5-dione] | 268 to 270 |  |  |  |  | 
10 | CCN(CC)CC(O)CN1C(=O)C2C(C1=O)C1(C)C(=O)C2(C)C(c2ccccc2)=C1c1ccccc1 (stereo not shown) [1d, 4-[3-(diethylamino)-2-hydroxypropyl]-1,7-dimethyl-8,9-diphenyl-4-azatricyclo[5.2.1.0^2,6]dec-8-ene-3,5,10-trione] |  | 39 | 22 | 59 | 37 | logkw (Experimental) [5]: 4.87; logkw (Table S2) [5]: 4.8734
11 | CCNCC(O)CN1C(=O)C2C(C1=O)C1(C)C(=O)C2(C)C(c2ccccc2)=C1c1ccccc1 (stereo not shown) [1b, 4-[3-(ethylamino)-2-hydroxypropyl]-1,7-dimethyl-8,9-diphenyl-4-azatricyclo [5.2.1.0^2,6]dec-8-ene-3,5,10-trione] |  | 32 | 20 | 30 | 7 | logkw (Experimental) [5]: 4.78; logkw (Table S2) [5]: 4.7844
12 | CCNCC(O)CN1C(=O)C2C(C1=O)C1(CC)C(=O)C2(CC)C(c2ccccc2)=C1c1ccccc1 (stereo not shown) [2b, 4-[3-(ethylamino)-2-hydroxypropyl]-1,7-diethyl-8,9-diphenyl-4-azatricyclo [5.2.1.0^2,6]dec-8-ene-3,5,10-trione] |  | 8 | 3.4 | 26 | 14 | logkw (Experimental) [5]: 5.08; logkw (Table S2) [5]: 5.0846
13 | CCCCN(CCCC)CC(O)CN1C(=O)C2C(C1=O)C1(CC)C(=O)C2(CC)C(c2ccccc2)=C1c1ccccc1 (stereo not shown) (as salt: HCl) [2e, 4-[3-(dibutylamino)-2-hydroxypropyl]-1,7-diethyl-8,9-diphenyl-4-azatricyclo[5.2.1.0^2,6]dec-8-ene-3,5,10-trione] | 92 to 110 |  |  |  |  | 
14 | CCC12C(=O)C(CC)(C(c3ccccc3)=C1c1ccccc1)C1C(=O)N(CC(O)CN3CCCCC3)C(=O)C12 (stereo not shown) (as salt: HCl) [2f, 4-[2-hydroxy-3-(piperidin-1-yl)propyl]-1,7-diethyl-8,9-diphenyl-4-azatricyclo[5.2.1.0^2,6]dec-8-ene-3,5,10-trione] | 190 to 195 |  |  |  |  | 
